# Test results reported in ChEMBL document CHEMBL3217457, “Carbazolepyrrolo[2,1-c][1,4]benzodiazepine conjugates: design, synthesis, and biological evaluation” (Medchemcomm, 2011).
# Active and inactive are the calls of the source. No cut-off for these calls is given here.
# What was measured:
# A549 = assay: Growth inhibition of human A549 cells; assay type: functional
# TK-10 = assay: Growth inhibition of human TK10 cells; assay type: functional
# HL-60(TB) = assay: Growth inhibition of human HL-60(TB) cells; assay type: functional
# MCF7 [1] = assay: Cell cycle arrest in human MCF7 cells assessed as accumulation at G0/G1 phase at 4 uM after 24 hrs by propidium iodide staining based flow cytometry (reference value: 60.75%); assay type: functional
# KM12 = assay: Growth inhibition of human KM12 cells; assay type: functional
# NCI-H522 = assay: Growth inhibition of human NCI-H522 cells; assay type: functional
# U-251 = assay: Growth inhibition of human U251 cells; assay type: functional
# MCF7 [2] = assay: Cell cycle arrest in human MCF7 cells assessed as accumulation at G1 phase at 4 uM after 24 hrs by propidium iodide staining based flow cytometry (reference value: 57.98%); assay type: functional
# MCF7 [3] = assay: Growth inhibition of human MCF7 cells; assay type: functional
# SNB-19 = assay: Growth inhibition of human SNB19 cells; assay type: functional
# MDA-MB-435 = assay: Growth inhibition of human MDA-MB-435 cells; assay type: functional
# MCF7 [4] = assay: Antiproliferative activity against human MCF7 cells assessed as cell proliferation at 4 uM after 24 hrs by BrdU incorporation assay (reference value: 100%); assay type: functional; details: MCF7, 24 h, read-out: Activity
# [5] = Growth inhibition of human HCC2998 cells; assay type: functional; details: HCC 2998
# [6] = Growth inhibition of human UACC257 cells; assay type: functional; details: UACC-257
# SK-MEL-5 = assay: Growth inhibition of human SK-MEL-5 cells; assay type: functional
# CCRF-CEM = assay: Growth inhibition of human CCRF-CEM cells; assay type: functional
# T47D = assay: Growth inhibition of human T47D cells; assay type: functional
# HCT-116 = assay: Growth inhibition of human HCT116 cells; assay type: functional
# MCF7 [7] = assay: Cytotoxicity against human MCF7 cells by ATP-dependent cell viability assay; assay type: functional, cell-based
# [8] = Growth inhibition of human HCT15 cells; assay type: functional; details: HCT-15
# A2780 = assay: Growth inhibition of human A2780 cells; assay type: functional
# HOP-62 = assay: Growth inhibition of human HOP62 cells; assay type: functional
# CAKI-1 = assay: Growth inhibition of human CAKI-1 cells; assay type: functional
# SW-620 = assay: Growth inhibition of human SW620 cells; assay type: functional
# KB = assay: Growth inhibition of human KB cells; assay type: functional
# SiHa = assay: Growth inhibition of human SiHa cells; assay type: functional
# [9] = Growth inhibition of human UACC62 cells; assay type: functional; details: UACC-62
# [10] = Growth inhibition of human MOLT4 cells; assay type: functional; details: MOLT-4
# MCF7 [11] = assay: Cell cycle arrest in human MCF7 cells assessed as accumulation at G2/M phase at 4 uM after 24 hrs by propidium iodide staining based flow cytometry (reference value: 24.95%); assay type: functional
# SN12C = assay: Growth inhibition of human SN12C cells; assay type: functional
# [12] = Growth inhibition of human Gurav cells; assay type: functional
# [13] = Growth inhibition of human EKVX cells; assay type: functional
# MCF7 [14] = assay: Cytotoxicity against human MCF7 cells assessed as decrease in cell viability at 2 to 16 uM after 6 to 48 hrs by MTT assay; assay type: functional, cell-based
# M14 = assay: Growth inhibition of human M14 cells; assay type: functional
# MCF7 [15] = assay: Cell cycle arrest in human MCF7 cells assessed as accumulation at S phase at 4 uM after 24 hrs by propidium iodide staining based flow cytometry (reference value: 14.30%); assay type: functional
# [16] = Growth inhibition of human HOP92 cells; assay type: functional; details: HOP-92
# NCI-H23 = assay: Growth inhibition of human NCI-H23 cells; assay type: functional
# MCF7 [17] = assay: Cell cycle arrest in human MCF7 cells assessed as accumulation at G0 phase at 4 uM after 24 hrs by propidium iodide staining based flow cytometry (reference value: 2.77%); assay type: functional
# IGROV-1 = assay: Growth inhibition of human IGROV1 cells; assay type: functional
# [18] = Growth inhibition of human MDA-MB cells; assay type: functional
# COLO 205 = assay: Growth inhibition of human COLO205 cells; assay type: functional
# [19] = Growth inhibition of human OVCAR5 cells; assay type: functional; details: OVCAR-5
# [20] = Growth inhibition of human UO31 cells; assay type: functional; details: UO-31
# SF-268 = assay: Growth inhibition of human SF268 cells; assay type: functional
# SR = assay: Growth inhibition of human SR cells; assay type: functional
# Malme-3M = assay: Growth inhibition of human MALME-3M cells; assay type: functional
# HT-29 = assay: Growth inhibition of human HT-29 cells; assay type: functional
# NCI-H226 = assay: Growth inhibition of human NCI-H226 cells; assay type: functional
# Calf thymus DNA = assay: Binding affinity to calf thymus DNA assessed as change in melting temperature at compound to DNA ratio of 1:5 after 18 hrs by thermal denaturation analysis; assay type: nucleic-acid assay; details: Bos taurus
# [21] = Growth inhibition of human RXF393 cells; assay type: functional; details: RXF 393
# [22] = Growth inhibition of human SF539 cells; assay type: functional; details: SF-539
# [23] = Growth inhibition of human BT549 cells; assay type: functional; details: BT-549
# SK-OV-3 = assay: Growth inhibition of human SKOV3 cells; assay type: functional
# DU-145 = assay: Growth inhibition of human DU145 cells; assay type: functional
# A498 = assay: Growth inhibition of human A498 cells; assay type: functional
# [24] = Growth inhibition of human OVCAR3 cells; assay type: functional; details: OVCAR-3
# SNB-75 = assay: Growth inhibition of human SNB75 cells; assay type: functional
# [25] = Growth inhibition of human LOXIMVI cells; assay type: functional; details: LOX IMVI
# NCI-H322M = assay: Growth inhibition of human NCI-H322M cells; assay type: functional
# SK-MEL-2 = assay: Growth inhibition of human SK-MEL-2 cells; assay type: functional
# MDA-MB-468 = assay: Growth inhibition of human MDA-MB-468 cells; assay type: functional
# ZR-75-1 = assay: Growth inhibition of human ZR-75-1 cells; assay type: functional
# NCI-H460 = assay: Growth inhibition of human NCI-H460 cells; assay type: functional
# 786-0 = assay: Growth inhibition of human 786-0 cells; assay type: functional
# [26] = Growth inhibition of human Hs 578T cells; assay type: functional
# [27] = Growth inhibition of human OVCAR4 cells; assay type: functional; details: OVCAR-4
# ACHN = assay: Growth inhibition of human ACHN cells; assay type: functional
# SK-MEL-28 = assay: Growth inhibition of human SK-MEL-28 cells; assay type: functional
# PC-3 = assay: Growth inhibition of human PC3 cells; assay type: functional
# MCF7 [28] = assay: Cytotoxicity against human MCF7 cells assessed as decrease in cell viability at 4 uM after 24 hrs by MTT assay; assay type: functional, cell-based
smiles,measurement,setting,value
COc1cc2c(cc1OCCCN1CCN(CCCn3c4ccccc4c4ccccc43)CC1)N=C[C@@H]1CCCN1C2=O,GI50,A549,140 nM
same,GI50,TK-10,120 nM
same,GI50,HL-60(TB),30 nM
same,Activity,MCF7 [1],86.6%
same,GI50,KM12,150 nM
same,GI50,NCI-H522,< 10 nM
same,GI50,U-251,30 nM
same,Activity,MCF7 [2],69.47%
same,GI50,MCF7 [3],40 nM
same,GI50,SNB-19,210 nM
same,GI50,MDA-MB-435,10 nM
same,growth at 4 µM,MCF7 [4],35.2%
same,GI50,[5],130 nM
same,GI50,[6],150 nM
same,GI50,SK-MEL-5,230 nM
same,GI50,CCRF-CEM,20 nM
same,GI50,T47D,170 nM
same,GI50,HCT-116,60 nM
same,inhibition,MCF7 [7],Active
same,GI50,[8],280 nM
same,GI50,A2780,120 nM
same,GI50,HOP-62,80 nM
same,GI50,CAKI-1,120 nM
same,GI50,SW-620,40 nM
same,GI50,KB,130 nM
same,GI50,SiHa,140 nM
same,GI50,[9],150 nM
same,GI50,[10],20 nM
same,Activity,MCF7 [11],3.87%
same,GI50,SN12C,270 nM
same,GI50,[12],120 nM
same,GI50,[13],140 nM
same,inhibition,MCF7 [14],Active
same,GI50,M14,150 nM
same,Activity,MCF7 [15],9.53%
same,GI50,[16],270 nM
same,GI50,NCI-H23,260 nM
same,Activity,MCF7 [17],17.13%
same,GI50,IGROV-1,< 10 nM
same,GI50,[18],950 nM
same,GI50,COLO 205,70 nM
same,GI50,[19],30 nM
same,GI50,[20],120 nM
same,GI50,SF-268,50 nM
same,GI50,SR,30 nM
same,GI50,Malme-3M,150 nM
same,GI50,HT-29,50 nM
same,GI50,NCI-H226,130 nM
same,ΔTm,Calf thymus DNA,7 °C
same,GI50,[21],220 nM
same,GI50,[22],120 nM
same,GI50,[23],130 nM
same,GI50,SK-OV-3,290 nM
same,GI50,DU-145,40 nM
same,GI50,A498,170 nM
same,GI50,[24],69 nM
same,GI50,SNB-75,150 nM
same,GI50,[25],30 nM
same,GI50,NCI-H322M,250 nM
same,GI50,SK-MEL-2,190 nM
same,GI50,MDA-MB-468,110 nM
same,GI50,ZR-75-1,130 nM
same,GI50,NCI-H460,250 nM
same,GI50,786-0,190 nM
same,GI50,[26],160 nM
same,GI50,[27],100 nM
same,GI50,ACHN,250 nM
same,GI50,SK-MEL-28,60 nM
same,GI50,PC-3,30 nM
same,inhibition,MCF7 [28],Active
